Laboratory results published in PubChem BioAssay (NCI).
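1) Cells in 96-well plates. 2) Compound, 48 h, 5 concentrations. 3) Linear interpolation between surrounding doses. 4) Unreached endpoint = highest concentration. TGI: total growth inhibition.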

What was measured:
Experiment in all cases: NCI tumour cell line growth inhibition, 48 h
[1] = system: 786-0 renal
[2] = system: A498 renal
[3] = system: A549 NSCLC
[4] = system: ACHN renal
[5] = system: CAKI-1 renal
[6] = system: CCRF-CEM leukemia
[7] = system: COLO 205 colon
[8] = system: DLD-1 colon
[9] = system: DMS 114 small cell lung
[10] = system: DMS 273 small cell lung
[11] = system: EKVX NSCLC
[12] = system: HCC-2998 colon
[13] = system: HCT-116 colon
[14] = system: HCT-15 colon
[15] = system: HOP-18 NSCLC
[16] = system: HOP-62 NSCLC
[17] = system: HOP-92 NSCLC
[18] = system: HT29 colon
[19] = system: IGROV1 ovarian
[20] = system: K-562 leukemia
[21] = system: KM12 colon
[22] = system: KM20L2 colon
[23] = system: LOX IMVI melanoma
[24] = system: LXFL 529 NSCLC
[25] = system: M14 melanoma
[26] = system: M19-MEL melanoma
[27] = system: MALME-3M melanoma
[28] = system: MOLT-4 leukemia
[29] = system: NCI-H226 lung
[30] = system: NCI-H23 lung
[31] = system: NCI-H460 lung
[32] = system: OVCAR-3 ovarian
[33] = system: OVCAR-4 ovarian
[34] = system: OVCAR-5 ovarian
[35] = system: OVCAR-8 ovarian
[36] = system: RPMI-8226 leukemia
[37] = system: RXF 393 renal
[38] = system: RXF-631 renal
[39] = system: SF-268 CNS
[40] = system: SF-295 CNS
[41] = system: SF-539 CNS
[42] = system: SK-MEL-28 melanoma
[43] = system: SK-MEL-5 melanoma
[44] = system: SK-OV-3 ovarian
[45] = system: SN12C renal
[46] = system: SNB-19 CNS
[47] = system: SNB-75 CNS
[48] = system: SNB-78 CNS
[49] = system: SR leukemia
[50] = system: SW-620 colon
[51] = system: TK-10 renal
[52] = system: U251 CNS
[53] = system: UACC-257 melanoma
[54] = system: UACC-62 melanoma
[55] = system: UO-31 renal
[56] = system: XF 498 CNS
[57] = system: NCI-H522 lung

COC(=O)CCSC(=O)Nc1ccc(N=Nc2ccccc2)cc1
TGI [1]: > 100 µM | TGI [2]: 62.1 µM | TGI [3]: > 100 µM | TGI [4]: > 100 µM | TGI [5]: > 100 µM | TGI [6]: > 100 µM | TGI [7]: 47.7 µM | TGI [8]: > 100 µM | TGI [9]: > 100 µM | TGI [10]: > 100 µM | TGI [11]: > 100 µM | TGI [12]: 59 µM | TGI [13]: > 100 µM | TGI [14]: > 100 µM | TGI [15]: > 100 µM | TGI [16]: > 100 µM | TGI [17]: > 100 µM | TGI [18]: > 100 µM | TGI [19]: > 100 µM | TGI [20]: > 100 µM | TGI [21]: > 100 µM | TGI [22]: 76.3 µM | TGI [23]: > 100 µM | TGI [24]: > 100 µM | TGI [25]: > 100 µM | TGI [26]: > 100 µM | TGI [27]: > 100 µM | TGI [28]: > 100 µM | TGI [29]: > 100 µM | TGI [30]: 92 µM | TGI [31]: > 100 µM | TGI [32]: 74.9 µM | TGI [33]: > 100 µM | TGI [34]: > 100 µM | TGI [35]: > 100 µM | TGI [36]: > 100 µM | TGI [37]: > 100 µM | TGI [38]: > 100 µM | TGI [39]: > 100 µM | TGI [40]: > 100 µM | TGI [41]: > 100 µM | TGI [42]: > 100 µM | TGI [43]: > 100 µM | TGI [44]: > 100 µM | TGI [45]: > 100 µM | TGI [46]: > 100 µM | TGI [47]: > 100 µM | TGI [48]: > 100 µM | TGI [49]: > 100 µM | TGI [50]: > 100 µM | TGI [51]: > 100 µM | TGI [52]: > 100 µM | TGI [53]: > 100 µM | TGI [54]: > 100 µM | TGI [55]: > 100 µM | TGI [56]: > 100 µM

Cn1c(CBr)nc2c1C(=O)c1nc(CBr)[nH]c(=O)c1C2=O
TGI [1]: > 100 µM | TGI [2]: > 100 µM | TGI [3]: > 100 µM | TGI [4]: > 100 µM | TGI [5]: > 100 µM | TGI [6]: > 100 µM | TGI [7]: > 100 µM | TGI [8]: > 100 µM | TGI [9]: > 100 µM | TGI [11]: > 100 µM | TGI [13]: > 100 µM | TGI [14]: > 100 µM | TGI [15]: > 100 µM | TGI [17]: > 100 µM | TGI [18]: > 100 µM | TGI [19]: > 100 µM | TGI [20]: > 100 µM | TGI [22]: > 100 µM | TGI [23]: > 100 µM | TGI [24]: > 100 µM | TGI [25]: > 100 µM | TGI [26]: 68.6 µM | TGI [28]: > 100 µM | TGI [30]: > 100 µM | TGI [31]: > 100 µM | TGI [57]: > 100 µM | TGI [35]: > 100 µM | TGI [36]: > 100 µM | TGI [37]: > 100 µM | TGI [38]: > 100 µM | TGI [39]: > 100 µM | TGI [40]: > 100 µM | TGI [41]: > 100 µM | TGI [42]: > 100 µM | TGI [43]: > 100 µM | TGI [44]: > 100 µM | TGI [45]: > 100 µM | TGI [50]: > 100 µM | TGI [51]: > 100 µM | TGI [52]: > 100 µM | TGI [54]: > 100 µM | TGI [55]: > 100 µM
